Measurements as given in ChEMBL document CHEMBL1221291, “Studies on the structure-activity relationship of 1,3,3,4-tetra-substituted pyrrolidine embodied CCR5 receptor antagonists. Part 2: Discovery of highly potent anti-HIV agents” (Bioorg Med Chem Lett, 2010).

How the values were obtained:
[1] = biological target: C-C chemokine receptor type 5 (Homo sapiens, UniProt P51681); assay: Inhibition of human CCR5 expressed in CHO cells assessed as inhibition of RANTES-stimulated [35S]GTPgammaS binding; type: functional, cell-based
[2] = test system: Human immunodeficiency virus 1; assay: Antiviral activity against R5 tropic HIV1 BaL infected in human PBMC; type: functional, organism-based; details: Human immunodeficiency virus 1, BaL
hERG (KCNH2) = hERG (KCNH2) (Homo sapiens, UniProt Q12809); assay: Inhibition of human ERG at 1 uM
[3] = Cytotoxicity against human PBMC; type: cell-based

Sequence of C-C chemokine receptor type 5 (P51681 whole entry): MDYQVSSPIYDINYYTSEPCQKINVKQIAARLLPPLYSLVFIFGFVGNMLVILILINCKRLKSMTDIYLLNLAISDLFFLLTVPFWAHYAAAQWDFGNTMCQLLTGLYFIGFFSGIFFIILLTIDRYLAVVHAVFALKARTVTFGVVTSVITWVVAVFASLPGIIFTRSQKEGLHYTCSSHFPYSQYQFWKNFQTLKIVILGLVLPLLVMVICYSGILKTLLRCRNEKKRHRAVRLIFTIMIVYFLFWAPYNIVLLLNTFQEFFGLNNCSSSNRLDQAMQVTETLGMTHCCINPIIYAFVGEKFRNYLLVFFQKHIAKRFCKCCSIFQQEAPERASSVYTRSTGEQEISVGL
Sequence of hERG (KCNH2) (Q12809 whole entry): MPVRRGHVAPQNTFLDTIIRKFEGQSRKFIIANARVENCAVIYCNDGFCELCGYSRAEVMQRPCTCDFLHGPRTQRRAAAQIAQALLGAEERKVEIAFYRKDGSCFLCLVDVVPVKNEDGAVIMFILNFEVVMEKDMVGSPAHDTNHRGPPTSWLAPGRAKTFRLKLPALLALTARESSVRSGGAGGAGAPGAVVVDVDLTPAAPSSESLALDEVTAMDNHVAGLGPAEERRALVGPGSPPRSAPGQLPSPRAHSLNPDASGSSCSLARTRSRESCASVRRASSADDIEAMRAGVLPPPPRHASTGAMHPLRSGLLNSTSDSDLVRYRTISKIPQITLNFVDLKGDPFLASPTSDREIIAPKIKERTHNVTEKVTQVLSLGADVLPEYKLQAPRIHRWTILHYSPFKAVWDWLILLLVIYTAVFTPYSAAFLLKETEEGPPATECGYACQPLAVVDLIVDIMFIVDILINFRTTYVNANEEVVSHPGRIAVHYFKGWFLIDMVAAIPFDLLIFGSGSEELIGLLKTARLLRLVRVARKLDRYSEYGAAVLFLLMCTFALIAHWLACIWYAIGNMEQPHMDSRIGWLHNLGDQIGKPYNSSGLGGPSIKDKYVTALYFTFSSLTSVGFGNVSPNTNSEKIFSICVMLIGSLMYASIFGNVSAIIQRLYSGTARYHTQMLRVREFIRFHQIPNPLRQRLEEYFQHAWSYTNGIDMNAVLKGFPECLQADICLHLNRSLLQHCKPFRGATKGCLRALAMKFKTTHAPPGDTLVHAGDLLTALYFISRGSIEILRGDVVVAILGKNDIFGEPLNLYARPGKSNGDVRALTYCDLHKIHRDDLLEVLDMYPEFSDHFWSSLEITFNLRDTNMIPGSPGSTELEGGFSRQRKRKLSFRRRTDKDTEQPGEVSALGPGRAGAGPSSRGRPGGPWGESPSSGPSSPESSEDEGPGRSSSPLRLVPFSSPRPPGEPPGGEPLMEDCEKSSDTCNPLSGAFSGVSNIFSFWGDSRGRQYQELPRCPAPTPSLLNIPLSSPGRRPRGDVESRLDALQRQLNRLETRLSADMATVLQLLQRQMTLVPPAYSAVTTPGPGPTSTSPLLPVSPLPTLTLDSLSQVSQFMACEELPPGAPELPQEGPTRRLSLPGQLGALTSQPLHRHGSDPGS

Compound | IC50 [1] | EC50 [2] | inhibition at 1 µM (hERG (KCNH2)) | CC50 [3]
C=CCN(C(=O)NCc1ccc(S(=O)(=O)N(C)C)cc1)[C@H]1C[C@H]2CC[C@@H](C1)N2C[C@H]1CN(C(=O)C2CCCC2)C[C@]1(O)c1cccc(F)c1 | 11.4 nM | 0.0055 nM | 31.3% | 55000 nM
C=CCN(C(=O)OCc1ccc([N+](=O)[O-])cc1)C1CCN(C[C@H]2CN(C(=O)C3CCCC3)C[C@]2(O)c2ccc(OC)cc2)CC1 | 318 nM | > 100 nM |  | 
C=CCN(C(=O)OCc1ccc([N+](=O)[O-])cc1)C1CCN(C[C@H]2CN(C(=O)C3CCCC3)C[C@]2(O)c2cccc(F)c2)CC1 | 8.85 nM | < 0.4 nM |  | 
C=CCN(C(=O)NCc1ccc(C(F)(F)F)cc1)[C@@H]1C[C@H]2CC[C@@H](C1)N2C[C@H]1CN(C(=O)C2CCCC2)C[C@]1(O)c1cccc(F)c1 | 14.3 nM | > 100 nM | 88.6% | 103000 nM
C=CCN(C(=O)NCc1ccc(C(F)(F)F)cc1)[C@H]1C[C@H]2CC[C@@H](C1)N2C[C@H]1CN(C(=O)C2CCCC2)C[C@]1(O)c1cccc(F)c1 | 6.77 nM | < 0.005 nM | 89.5% | 12500 nM
C=CCN(C(=O)Cc1ccc(S(=O)(=O)NC)cc1)C1CCN(C[C@H]2CN(C(=O)C3CCCC3)C[C@]2(O)c2cccc(F)c2)CC1 | 2.98 nM | 4.5 nM |  | 
C=CCN(C(=O)NCc1ccc(F)cc1)[C@H]1C[C@H]2CC[C@@H](C1)N2C[C@H]1CN(C(=O)C2CCCC2)C[C@]1(O)c1cccc(F)c1 | 30 nM | 1.75 nM |  | 42000 nM
C=CCN(C(=O)Cc1ccc(S(=O)(=O)NC)cc1)C1CCN(C[C@H]2CN(C(=O)C3CCCC3)C[C@]2(O)c2ccc(F)cc2)CC1 | 11.2 nM | > 100 nM |  | 
C=CCN(C(=O)OCc1ccc([N+](=O)[O-])cc1)C1CCN(C[C@H]2CN(C(=O)C3CCCC3)C[C@]2(O)c2ccccc2)CC1 [NIFEVIROC] |  | < 0.4 nM |  | 
C=CCN(C(=O)NCc1ccc(C(F)(F)F)cc1)C1CCN(C[C@H]2CN(C(=O)C3CCCC3)C[C@]2(O)c2ccc(F)cc2)CC1 | 38.3 nM | 20 nM |  | 
C=CCN(C(=O)OCc1ccc([N+](=O)[O-])cc1)C1CCN(C[C@H]2CN(C(=O)C3CCCC3)C[C@]2(O)c2ccc(F)cc2)CC1 | 30 nM | > 100 nM |  | 
C=CCN(C(=O)NCc1ccc(C(F)(F)F)cc1)C1CCN(C[C@H]2CN(C(=O)C3CCCC3)C[C@]2(O)c2cccc(F)c2)CC1 | 1.38 nM | 6 nM |  | 
